Experiments:
mouse = experiment: Oral activity in vivo (audiogenic mouse test and/or MES test); settings: oral administration
Procedure: The oral bioavailability was tested using the audiogenic mouse test (Audiogenic seizures, R. L. Collins; Chapter 14, pages: 347-372. In: Experimental Models of Epilepsy; By: Pupura, Penry, Tower, Woodbury, Waiter, Raven Press, New York, 1972. Standard Book Number: 0-911216-26-X) and/or the MES test.

OF1 mice = experiment: Murine maximal electroshock test (MES test); type: in vivo, mouse; settings: for ED50: Mus musculus, po, pre-treatment time 1 h
Procedure: Compounds of the invention were tested in OF1 mice using the maximal electroshock test (MES Test) described in detail by Schmutz et al., Naunyn-Schmiedeberg's Arch Pharmacol 1990, 342, 61-66. Briefly, generalized tonic-clonic convulsions of the hind extremities were induced by passing electrical current through temporal electrodes (50 Hz, 18 mA, 0.2 s). […] 30 mg/kg carbamazepine was used as a positive control; mice were classified as protected by a compound if the duration of the seizure lasted only 3 second or less. Five mice were used for each treatment condition and the percentage of protected mice was used as readout (i.e. a compound could give 0%, 20%, 40%, 60%, 80% or 100% protection). Compounds of the invention were given at a dose of 50 mg/kg, p.o., 1 hour prior to induction of convulsions (i.e. “pre-treatment time−1 h”).
ED50 values (ED: effective dose) were calculated using GraphPad Prism, v4.02.
15 s after shock administration, mouse blood was collected for determination of compounds' blood exposure.

| SMILES | In vivo orally active (mouse) | MES-Test (1 h, po) % protection @ 50 (OF1 mice; p.o., 1 h, percentage of protected mice, printed '@ 50' (mg/kg)) [% @ 50^] | ED50 (OF1 mice) [mg/kg] |
| --- | --- | --- | --- |
| Cn1nncc1-c1cc2c(=O)n(NS(C)(=O)=O)c(=O)[nH]c2cc1C(F)(F)F [Comparative, N-(6-(1-methyl-1H-1,2,3-triazol-5-yl)-2,4-dioxo-7-trifluoromethyl-1,4-dihydro-2H-quinazolin-3-yl]-methanesulfonamide, reference compound] | No | 0 | – |
| CC(O)c1cc2c(=O)n(NS(C)(=O)=O)c(=O)[nH]c2cc1C(F)(F)F (centres unmarked) [Compound A-1, N-[6-(1-Hydroxy-ethyl)-2,4-dioxo-7-trifluoromethyl-1,4-dihydro-2H-quinazolin-3-yl]-methanesulfonamide] | Yes | – | 64 |
| COC(C)c1cc2c(=O)n(NS(C)(=O)=O)c(=O)[nH]c2cc1C(F)(F)F (centres unmarked) [Compound A-2, N-[6-(1-Methoxy-ethyl)-2,4-dioxo-7-trifluoromethyl-1,4-dihydro-2H-quinazolin-3-yl]-methanesulfonamide] | Yes | – | 6 |
| CCC(O)c1cc2c(=O)n(NS(C)(=O)=O)c(=O)[nH]c2cc1C(F)(F)F (centres unmarked) [Compound A-3, N-[6-(1-Hydroxy-propyl)-2,4-dioxo-7-trifluoromethyl-1,4-dihydro-2H-quinazolin-3-yl]-methanesulfonamide] | Yes | – | 19.6 |
| CC(C)OC(C)c1cc2c(=O)n(NS(C)(=O)=O)c(=O)[nH]c2cc1C(F)(F)F (centres unmarked) [Compound A-4, N-[6-(1-Isopropoxy-ethyl)-2,4-dioxo-7-trifluoromethyl-1,4-dihydro-2H-quinazolin-3-yl]-methanesulfonamide] | Yes | – | 15.6 |
| CCOC(CC)c1cc2c(=O)n(NS(C)(=O)=O)c(=O)[nH]c2cc1C(F)(F)F (centres unmarked) [Compound A-13, N-[6-(1-Ethoxy-propyl)-2,4-dioxo-7-trifluoromethyl-1,4-dihydro-2H-quinazolin-3-yl]-methanesulfonamide] | Yes | – | – |
| CC(OC1CCCC1)c1cc2c(=O)n(NS(C)(=O)=O)c(=O)[nH]c2cc1C(F)(F)F (centres unmarked) [Compound A-14, N-[6-(1-Cyclopentyloxy-ethyl)-2,4-dioxo-7-trifluoromethyl-1,4-dihydro-2H-quinazolin-3-yl]-methanesulfonamide] | yes | – | – |
| COCCC(O)c1cc2c(=O)n(NS(C)(=O)=O)c(=O)[nH]c2cc1C(F)(F)F (centres unmarked) [Compound A-18, N-[6-(1-Hydroxy-3-methoxy-propyl)-2,4-dioxo-7-trifluoromethyl-1,4-dihydro-2H-quinazolin-3-yl]-methanesulfonamide] | Yes | – | – |
| CS(=O)(=O)Nn1c(=O)[nH]c2cc(C(F)(F)F)c(C3CCCO3)cc2c1=O (centres unmarked) [Compound B-2, N-[2,4-Dioxo-6-(tetrahydro-furan-2-yl)-7-trifluoromethyl-1,4-dihydro-2H-quinazolin-3-yl]-methanesulfonamide] | Yes | – | – |
| COCCn1nccc1-c1cc2c(=O)n(NS(C)(=O)=O)c(=O)[nH]c2cc1C(F)(F)F [Compound C-4, N-{6-[2-(2-Methoxy-ethyl)-2H-pyrazol-3-yl]-2,4-dioxo-7-trifluoromethyl-1,4-dihydro-2H-quinazolin-3-yl}-methanesulfonamide] | Yes | – | – |
| CS(=O)(=O)Nn1c(=O)[nH]c2cc(C(F)(F)F)c(-c3ccnn3O)cc2c1=O [Compound C-5, N-[6-(2-Hydroxy-2H-pyrazol-3-yl)-2,4-dioxo-7-trifluoromethyl-1,4-dihydro-2H-quinazolin-3-yl]-methanesulfonamide] | Yes | – | – |
| CC(C)n1nccc1-c1cc2c(=O)n(NS(C)(=O)=O)c(=O)[nH]c2cc1C(C)(F)F [Compound C-16, N-[7-(1,1-difluoro-ethyl)-6-(2-isopropyl-2H-pyrazol-3-yl)-2,4-dioxo-1,4-dihydro-2H-quinazolin-3-yl]-methanesulfonamide] | Yes | – | – |

Reference: patent US20120122903A1, “1-H-QUINAZOLINE-2, 4-DIONES FOR USE IN THE TREATMENT OF NEURONAL CEROID LIPOFUSCINOSIS” (priority 2009, published 2012)
